Source: ChEMBL document CHEMBL5614431, “Discovery of 1,3,4-oxadiazoles with slow-action activity against Plasmodium falciparum malaria parasites” (Eur J Med Chem, 2024)
Calls of active or inactive are those of the source. The rule behind the calls is not given here.

test system: Plasmodium falciparum; test: Antimalarial activity against synchronous ring stage Plasmodium falciparum 3D7 infected in human Erythrocyte assessed as inhibition of parasite growth incubated for 48 hrs by [3H]-hypoxanthine incorporation assay; format: functional, organism-based; conditions: 3D7, Erythrocyte

**Q.** Which IC50 does the source give for O=S(=O)(CC1CCC1)c1nnc(N2CCOCC2)o1 here?
**A.** > 10 µM

**Q.** With O=S(=O)(c1nnc(N2CCOCC2)o1)C1CCCCCC1 as the compound, how does the IC50 read?
**A.** > 25 µM

**Q.** Which IC50 does the source give for O=S(=O)(c1nnc(N2CCC3(CC2)COC3)o1)C1CCCCC1 here?
**A.** > 10 µM

**Q.** Which IC50 does the source give for O=S(=O)(c1nnc(N2CCCCC2)o1)C1CCCCC1 here?
**A.** > 12.5 µM

test system: Plasmodium falciparum; test: Antimalarial activity against synchronous ring stage Plasmodium falciparum 3D7 infected in human Erythrocyte assessed as inhibition of parasite growth incubated for 96 hrs by [3H]-hypoxanthine incorporation assay; format: functional, organism-based; conditions: 3D7, Erythrocyte

**Q.** Which IC50 does the source give for O=S(=O)(CC1CCC1)c1nnc(N2CCOCC2)o1 here?
**A.** 0.53 µM

**Q.** With O=S(=O)(c1nnc(N2CCOCC2)o1)C1CCCCCC1 as the compound, how does the IC50 read?
**A.** 0.18 µM

**Q.** For O=S(=O)(c1nnc(N2CCC3(CC2)COC3)o1)C1CCCCC1, which IC50 is on record?
**A.** 0.1 µM

**Q.** For O=S(=O)(c1nnc(N2CCCCC2)o1)C1CCCCC1, which IC50 is on record?
**A.** 0.4 µM

test system: not listed separately; test: Selectivity ratio of IC50 for antimalarial activity against synchronous ring stage Plasmodium falciparum 3D7 infected in human Erythrocyte assessed as inhibition of parasite growth incubated for 48 hrs by [3H]-hypoxanthine incorporation assay to IC50 for antimalarial activity against synchronous ring stage Plasmodium falciparum 3D7 infected in human Erythrocyte assessed as inhibition of parasite growth incubated for 48 hrs by [3H]-hypoxanthine incorporation assay; format: functional; conditions: not given

**Q.** Which “Ratio IC50” value does the source give for O=S(=O)(CC1CCC1)c1nnc(N2CCOCC2)o1 here?
**A.** >19

**Q.** For O=S(=O)(c1nnc(N2CCOCC2)o1)C1CCCCCC1, which “Ratio IC50” value is on record?
**A.** >137

**Q.** With O=S(=O)(c1nnc(N2CCC3(CC2)COC3)o1)C1CCCCC1 as the compound, how does the “Ratio IC50” value read?
**A.** >102

**Q.** For O=S(=O)(c1nnc(N2CCCCC2)o1)C1CCCCC1, which “Ratio IC50” value is on record?
**A.** >32

test system: not listed separately; test: Cytotoxicity against human NFF cells assessed as reduction in cell viability incubated for 72 hrs by SRB assay; format: toxicity, cell-based; conditions: not given

**Q.** For CCN(CC)CCCC(C)Nc1ccnc2cc(Cl)ccc12 (stereo not given) [CHLOROQUINE], which IC50 at 72 h is on record?
**A.** 36.7 µM

**Q.** Which IC50 at 72 h does the source give for O=S(=O)(CC1CCC1)c1nnc(N2CCOCC2)o1 here?
**A.** > 100 µM

**Q.** For O=S(=O)(c1nnc(N2CCOCC2)o1)C1CCCCCC1, which IC50 at 72 h is on record?
**A.** > 100 µM

**Q.** Which IC50 at 72 h does the source give for O=S(=O)(c1nnc(N2CCC3(CC2)COC3)o1)C1CCCCC1 here?
**A.** > 100 µM

**Q.** Which IC50 at 72 h does the source give for O=S(=O)(c1nnc(N2CCCCC2)o1)C1CCCCC1 here?
**A.** > 100 µM

test system: not listed separately; test: Selectivity index, ratio of IC50 for cytotoxicity against human NFF cells to IC50 for antimalarial activity against synchronous ring stage Plasmodium falciparum 3D7 infected in human Erythrocyte assessed as inhibition of parasite growth incubated for 96 hrs; format: toxicity, cell-based; conditions: read-out: Ratio IC50

**Q.** With O=S(=O)(CC1CCC1)c1nnc(N2CCOCC2)o1 as the compound, how does the selectivity ratio at 96 h read?
**A.** > 186

**Q.** With O=S(=O)(c1nnc(N2CCOCC2)o1)C1CCCCCC1 as the compound, how does the selectivity ratio at 96 h read?
**A.** > 769

**Q.** Which selectivity ratio at 96 h does the source give for O=S(=O)(c1nnc(N2CCC3(CC2)COC3)o1)C1CCCCC1 here?
**A.** > 1020

**Q.** For O=S(=O)(c1nnc(N2CCCCC2)o1)C1CCCCC1, which selectivity ratio at 96 h is on record?
**A.** > 250

test system: Plasmodium falciparum; test: Antimalarial activity against synchronous ring stage Plasmodium falciparum 3D7 infected in human Erythrocyte assessed as inhibition of parasite growth incubated for 96 hrs supplemented with IPP by [3H]-hypoxanthine incorporation assay; format: functional, organism-based; conditions: 3D7, Erythrocyte

**Q.** Which IC50 does the source give for CCC[C@@H]1C[C@@H](C(=O)N[C@@H]([C@H]2O[C@H](SC)[C@H](O)[C@@H](O)[C@H]2O)[C@H](C)Cl)N(C)C1 [CLINDAMYCIN] here?
**A.** > 25 µM

test system: not listed separately; test: Selectivity ratio of IC50 for antimalarial activity against synchronous ring stage Plasmodium falciparum 3D7 infected in human Erythrocyte assessed as inhibition of parasite growth incubated for 96 hrs supplemented with IPP by [3H]-hypoxanthine incorporation assay to IC50 for antimalarial activity against synchronous ring stage Plasmodium falciparum 3D7 infected in human Erythrocyte assessed as …; format: functional; conditions: not given

**Q.** With CCC[C@@H]1C[C@@H](C(=O)N[C@@H]([C@H]2O[C@H](SC)[C@H](O)[C@@H](O)[C@H]2O)[C@H](C)Cl)N(C)C1 [CLINDAMYCIN] as the compound, how does the “Ratio IC50” value read?
**A.** 3571

test system: not listed separately; test: Metabolic stability in human liver microsomes assessed as half life; format: ADME, Microsome; conditions: not given

**Q.** For O=S(=O)(c1nnc(N2CCC3(CC2)COC3)o1)C1CCCCC1, which half-life is on record?
**A.** 112 min

test system: not listed separately; test: Metabolic stability in mouse liver microsomes assessed as half life; format: ADME, Microsome; conditions: not given

**Q.** Which half-life does the source give for O=S(=O)(c1nnc(N2CCC3(CC2)COC3)o1)C1CCCCC1 here?
**A.** 18 min

test system: not listed separately; test: Apparent permeability of the compound in human Caco-2 cells across apical to basolateral side; format: ADME, cell-based; conditions: not given

**Q.** For O=S(=O)(c1nnc(N2CCC3(CC2)COC3)o1)C1CCCCC1, which Papp A→B is on record?
**A.** 44 ×10⁻⁶ cm/s

test system: not listed separately; test: Apparent half life in non fasted female BALB/c mouse at 100 mg/kg, po via gavage and measured upto 24 hrs by LC-MS analysis; format: ADME, organism-based; conditions: in vivo, read-out: t1/2(app) (converted)

**Q.** For O=S(=O)(CC1CCC1)c1nnc(N2CCOCC2)o1, which half-life is on record?
**A.** 57 min

test system: not listed separately; test: Cmax in non fasted female BALB/c mouse plasma at 100 mg/kg, po via gavage and measured upto 24 hrs by LC-MS analysis; format: ADME, organism-based; conditions: not given

**Q.** Which Cmax does the source give for O=S(=O)(CC1CCC1)c1nnc(N2CCOCC2)o1 here?
**A.** 2140 nM

**Q.** Which Cmax does the source give for O=S(=O)(c1nnc(N2CCOCC2)o1)C1CCCCCC1 here?
**A.** 650 nM

test system: not listed separately; test: Tmax in non fasted female BALB/c mouse at 100 mg/kg, po via gavage and measured upto 24 hrs by LC-MS analysis; format: ADME, organism-based; conditions: in vivo

**Q.** For O=S(=O)(CC1CCC1)c1nnc(N2CCOCC2)o1, which Tmax is on record?
**A.** 15 min

**Q.** Which Tmax does the source give for O=S(=O)(c1nnc(N2CCOCC2)o1)C1CCCCCC1 here?
**A.** 15 min

test system: not listed separately; test: AUC (0 to t) in non fasted female BALB/c mouse plasma at 100 mg/kg, po via gavage and measured after 4 hrs by LC-MS analysis; format: ADME, organism-based; conditions: not given

**Q.** For O=S(=O)(CC1CCC1)c1nnc(N2CCOCC2)o1, which AUC(0-t) at 4 h is on record?
**A.** 3.61 µM·h

test system: not listed separately; test: AUC (0 to t) in non fasted female BALB/c mouse plasma at 100 mg/kg, po via gavage and measured after 7.5 hrs by LC-MS analysis; format: ADME, organism-based; conditions: not given

**Q.** For O=S(=O)(c1nnc(N2CCOCC2)o1)C1CCCCCC1, which AUC(0-t) at 7.5 h is on record?
**A.** 1.16 µM·h

test system: not listed separately; test: AUC (0 to infinity) in non fasted female BALB/c mouse at 100 mg/kg, po via gavage and measured upto 24 hrs by LC-MS analysis; format: ADME, organism-based; conditions: in vivo

**Q.** For O=S(=O)(CC1CCC1)c1nnc(N2CCOCC2)o1, which AUC(0-inf) is on record?
**A.** 3.91 µM·h

test system: Plasmodium berghei; test: Antimalarial activity against Plasmodium berghei ANKA infected in female BALB/c mouse model assessed as reduction in parasitemia at 10 mg/kg, po qd pre-infected for 2 hrs followed by compound addition and measured after 3 days by microscopic analysis; format: functional, organism-based; conditions: time 3.0 day

**Q.** For CCN(CC)CCCC(C)Nc1ccnc2cc(Cl)ccc12 (stereo not given) [CHLOROQUINE], which Activity is on record?
**A.** Active
